From US20220260587A1, “METHOD” (Worg Pharmaceuticals (Hangzhou) Co., Ltd., priority 2019, published 2022)

Tests used:
[1] = molecular target: MHCII (HLA-DR2) with bound CLIP (MHCII-CLIP) (Homo sapiens, UniProt P01903+P01911); assay: CLIP displacement assay; assay type: cell-based; settings: MBP-specific T cell line 24 hours
Protocol: Response of MBP-specific T cell line to HLA-DR2 monomers following peptide exchange. Biotinylated HLA-DR2 (DRB1*1501) monomers, with the CLIP peptide bound, were attached to neutravidin coated 96 well plates. Wells were incubated with the indicated concentration of MBP 83-99, a dominant HLA-DR2 restricted epitope of MBP, for 16 hours and the plates washed. Control wells were coated with the DR2 monomer pre-loaded with the MBP 83-99 peptide. A T cell line specific for MBP was incubated with the monomers at 37° C. for 24 hours and response assessed by measurement of secreted IL-2.
MHCII (HLA-DR2) with bound CLIP (MHCII-CLIP) was affixed to wells of a 96-well plate using neutravidin and biotin. In particular, 96-well plates were coated with 15 μg/ml neutravidin in PBS overnight at 4° C. Plates were washed twice with wash buffer (0.1% BSA/PBS) and blocked with 1% BSA in PBS for 2 hours at room temperature. Plates were washed twice with wash buffer and 0.125 μg/ml of biotin-MHCII-CLIP in PBS was added for a 2-hour incubation at room temperature in a humid atmosphere. Plates were washed 4 times with wash buffer, leaving wells coated in MHCII-CLIP. Positive control wells were coated with MHCII with bound MBP 83-99 (instead of CLIP). […]
T cell activation was assessed by measuring secreted IL2.

MHCII on dendritic cells = assay: In vivo MHCII loading assay; design: species or system HLA-DRtg mice; settings: for CD4+ T cell activation (IFNγ) by dendritic cells loaded in vivo: 100 μg peptide subcutaneously, spleen CD11c+ cells 2 hours post injection, co-culture 72 hours, FIG. 4
Protocol: Response of peptide-specific CD4^+ T cells towards peptide loaded in vivo on dendritic cells. […] 2 h post injection, spleens were dissected and CD11c^+ cells (dendritic cells) were isolated. These CD11c^+ cells were co-cultured with peptide-specific CD4+ cells for 72 h at 37° C. IFNγ was measured in the supernatant of these cultures to evaluate the response to peptide by the CD4^+ T cells.
In particular, HLA-DRtg mice were injected with 100 μg of peptide in 100 μl PBS subcutaneously in the flank. Control animals received a subcutaneous injection of 100 μl PBS. After 2 hours, spleens were harvested and single-cell suspensions were made. CD11c^+ cells (splenic dendritic cells) were positively selected using CD11c microbeads according to the manufacturer's instructions (Miltenyi Biotec, Bergisch Gladbach, Germany). Average purities of >92% were reached.
1×10^5 CD11c^+ cells were co-cultured with 1×10^5 CD4^+ cells (primary T cells) in round bottom 96-well plates in X-vivo 15 medium (supplemented with 2 mM L-glutamine, 50 U/mL penicillin and 50 U/mL streptomycin; Lonza). The CD4^+ cells were isolated from HLA-DRtg mice that were immunised subcutaneously in the base of the tail with 50 μg peptide emulsified in CFA (peptide/CFA). Ten days after immunisation, draining lymph nodes (LN) and spleens were harvested. LN cells and splenocytes were isolated and CD4^+ T cells were isolated by negative selection using Magnisort Mouse CD4 Isolation kit (ThermoFisher Scientific) according to the manufacturer's instructions.
After 72 hours, supernatant of the CD11c^+-CD4^+ co-cultures was collected. CD4^+ T cell activation was analysed by IFNγ ELISA (R&D Systems, Abingdon, UK). In a parallel experiment, CD4^+ T cell responses towards peptide added in vitro were assessed to make sure the T cells recognize the peptides presented by the CD11c^+ cells.

MHCII = settings: test peptides of the competition assay; cited from earlier work
[2] = test system: response to protein antigen (SAg) in lymph node and spleen cells; assay: Ex vivo tolerance assay; assay type: in vivo, HLA-DR transgenic mice; settings: dose-escalating subcutaneous injections (0,1; 1; 10 and 3×100 μg), IFNg response to SAg, FIG. 5
Protocol: Response to protein antigen in lymph nodes (A) and spleens (B) of peptide-treated and non-treated mice. HLA-DR transgenic mice were treated with a dose-escalating regime of subcutaneous injections (0,1; 1; 10 and 3×100 μg every other day) of a tolerogenic (peptide Q) or non-tolerogenic (peptide P) peptide, or control injections (PBS). Afterwards, mice were immunized with peptide antigen in CFA and 10 days later, lymph nodes and spleens were dissected. Lymph node and spleen cells were cultured in vitro for 3 days at 37° C. in the presence of protein antigen (SAg) or positive control (PPD). The response of the cells towards the protein antigen was evaluated by measuring IFNg levels in supernatant of the cultures. *p<0.05
HLA-DRtg mice were injected subcutaneously in the flank region with 0.1 μg, 1 μg and 10 μg of peptide on days −15, −13 and −11 respectively, followed by 3 injections of 100 μg peptide on days −8, −6 and −4 (dose escalation schedule). On day 0, the mice were immunised subcutaneously in the base of the tail with 50 μg antigen (parental peptide) emulsified in CFA (peptide/CFA).
Ten days after immunisation, draining lymph nodes (LN) and spleens were harvested. […]
IFNγ concentrations in supernatants were assessed by cytokine ELISA (R&D Systems, Abingdon, UK) and cell activation was measured.

EAE = settings: cited from earlier work

Chain of MHCII (HLA-DR2) with bound CLIP (MHCII-CLIP) (P01903 26-254): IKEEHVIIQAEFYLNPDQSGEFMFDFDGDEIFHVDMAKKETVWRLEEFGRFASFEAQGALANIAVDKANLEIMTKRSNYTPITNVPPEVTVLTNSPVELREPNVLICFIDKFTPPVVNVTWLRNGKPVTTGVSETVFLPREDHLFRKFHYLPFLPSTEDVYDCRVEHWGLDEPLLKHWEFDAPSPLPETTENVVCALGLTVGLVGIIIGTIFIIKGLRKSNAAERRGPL
Chain of MHCII (HLA-DR2) with bound CLIP (MHCII-CLIP) (P01911 30-227 limits assumed): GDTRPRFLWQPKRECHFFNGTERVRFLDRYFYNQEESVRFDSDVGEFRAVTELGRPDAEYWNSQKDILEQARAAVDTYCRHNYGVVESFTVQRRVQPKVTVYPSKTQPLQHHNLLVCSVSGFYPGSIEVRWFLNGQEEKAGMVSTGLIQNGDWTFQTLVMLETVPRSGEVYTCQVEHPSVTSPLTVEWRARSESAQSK

Which results are given for ENPVVHFFKNIVTPRIP [MBP 83-99]?
T cell activation (secreted IL2) ([1]; MBP 83-99 at 3 μM added to MHCII-CLIP (CLIP monomer) for 16 hours): T cells are activated; T cell activation (secreted IL2) ([1]; MBP 83-99 at 30 μM added to MHCII-CLIP (CLIP monomer) for 16 hours): T cells are activated

With “GILVSYQIKVK (H-GILVSYQIKVK-NH2) [Peptide N]” as the substance, how does the “CD4+ T cell activation (IFNγ) by dendritic cells loaded in vivo” value (MHCII on dendritic cells) read?
Its value is “did not cause T cell activation”.

What about the HLA-DR binding (MHCII on dendritic cells; designation in legend of FIG. 4) of the same substance?
Its HLA-DR binding is “HLA-DR non-binding”.

With “GLKMFPDLTKVYSTD (H-GLKMFPDLTKVYSTD-NH2) [Peptide L]” as the substance, how does the “affinity for MHCII (known)” value (MHCII) read?
The value was “good affinity”.

For “KKEIFKKISRDKSVTIYLEKK (H-KKEIFKKISRDKSVTIYLEKK-NH2) [Peptide M]”, which “affinity for MHCII (known)” value (MHCII) is on record?
The value was “poor affinity”.

With “KKIFKKISRDKSVTIYLKK (H-KKIFKKISRDKSVTIYLKK-NH2) [Peptide P]” as the substance, how does the tolerogenicity [2] read?
The tolerogenicity was “non-tolerogenic”.

Which “CD4+ T cell activation (IFNγ) by dendritic cells loaded in vivo” value (MHCII on dendritic cells) does the source give for “KKKGILVSYQIKVKKKK (H-KKKGILVSYQIKVKKKK-NH2) [Peptide 0]” here?
Its value is “did”.

For “KKKIFKKISRDKSVTIYLKKK (H-KKKIFKKISRDKSVTIYLKKK-NH2) [Peptide Q]”, which tolerogenicity [2] is on record?
The tolerogenicity was “tolerogenic”.

With “LILLPLLANNRERRGIALDGKIKHEDTNLASSTIIKEG [Peptide K]” as the substance, how does the “affinity for MHCII (known)” value (MHCII) read?
Its value is “poor affinity”.

Which inducing tolerance (EAE; administered in solution) does the source give for “MBP peptide 89-101: myelin basic protein (MBP) peptide 89-101, immunodominant antigen after immunisation (PHLIRLFSRDAPG; UniProt P02686 89-101, looked up, fragment)” here?
The inducing tolerance was “ineffective”.

And the “immunogen: priming for T cell reactivity and induction of EAE” value (EAE; after immunisation)?
The value was “very effective immunogen”.

Which “affinity for MHCII (known)” value (MHCII) does the source give for “NPILLWQPIPVHTVPLSEDQ (H-NPILLWQPIPVHTVPLSEDQ-NH2) [Peptide J, reference compound]” here?
The value was “good affinity”.
